Reference: patent publication US5132320A, “Squalene synthetase inhibitors” (Merck & Co., Inc., priority 1990, dated 1992)

Columns and labels:
Squalene Synthetase = target: T1, Squalene Synthetase (Rattus norvegicus, UniProt Q02769); test: squalene synthetase assay (rat liver microsomes, [4-14C]farnesyl-pyrophosphate); assay type: biochemical; settings: 30° C., 20 minutes, pH 7.5
T1 construct: from tissue; host or cells: liver microsomes of male Charles River CD rats fed 0.1% lovastatin for 4 days
T1 sequence (Q02769 1-416): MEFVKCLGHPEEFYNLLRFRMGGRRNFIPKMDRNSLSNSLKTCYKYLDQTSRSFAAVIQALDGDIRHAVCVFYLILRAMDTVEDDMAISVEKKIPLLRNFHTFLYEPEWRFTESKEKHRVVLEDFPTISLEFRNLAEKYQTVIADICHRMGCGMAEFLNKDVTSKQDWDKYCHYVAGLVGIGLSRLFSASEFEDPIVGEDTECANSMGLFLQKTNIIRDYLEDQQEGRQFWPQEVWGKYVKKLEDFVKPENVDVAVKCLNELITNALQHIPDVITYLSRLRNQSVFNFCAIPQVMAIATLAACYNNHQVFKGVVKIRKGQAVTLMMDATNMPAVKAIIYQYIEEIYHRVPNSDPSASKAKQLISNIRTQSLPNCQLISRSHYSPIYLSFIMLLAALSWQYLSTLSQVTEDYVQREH
Procedure: The intrinsic squalene synthetase inhibitory activity of representative compounds of this invention was measured by the standard in vitro protocol described below:
PREPARATION OF MICROSOMES
Male, Charles River CD rats (120 to 150 g) were fed a diet containing 0.1% lovastatin for 4 days. The livers from these rats were homogenized in 5 volumes (ml/g) of ice cold 50 mM HEPES (4-(2-hydroxyethyl)-1-piperazine-ethanesulfonic acid), 5 mM EDTA (ethylenediaminetetraacetic acid) pH 7.5 with a Potter-Elvehjem type tissue grinder. The homogenate was centrifuged twice at 20,000×g for 15 minutes at 4° C., discarding the pellet each time. The supernatant was then centrifuged at 100,000×g for 1 hour at 4° C. The resulting microsomal pellet was resuspended in a volume of the above homogenizing buffer equal to one-fifth the volume of the original homogenate. This microsomal preparation has a protein concentration of about 7 mg/ml. The microsomal suspensions were stored in aliquots at -70° C. Squalene synthetase activity in these aliquots is stable for at least several months.
Partial Purification of Prenyl Transferase
Prenyl transferase was purified to use in the enzymatic synthesis of radiolabelled farnesyl pyrophosphate. […]

Fus. oxysporum MF4014 = test: antifungal microtiter dilution assay, filamentous fungi (MIC); assay type: cell-based; settings: Fusarium oxysporum, 42 hours, 28° C., read-out: Minimum Inhibitory Concentration
Procedure: The compounds are particularly active towards filamentous fungi and yeasts including Candida albicans and Crypt. neoformans. The sensitivity of filamentous fungi and yeast was determined using inhibitor dilution assays in microtiter format. The compounds were dissolved in DMSO at 2 mg/ml and serially diluted in 0.1M phosphate buffer, pH 7.0 in the microtiter dish from 100 to 0.006 μg/ml. A standardized spore suspension for testing the filamentous fungi was prepared by inoculating Antibiotic Medium #3 containing 1.5% agar with spores such that 1.5×10^3 colony forming units were added per well. The microtiter wells were filled with 50 μl of buffer containing compound and 50 μl of inoculated medium. The sensitivity of yeasts was determined by inoculating yeast nitrogen base containing 1% dextrose (YNB/G) with aliquots of an overnight yeast culture grown in Yeast Morphology (YM) media at 35° C. and diluting in YNB/G to yield a final concentration of 1.5-7.5×10^3 colony forming units/well. One hundred fifty μl of inoculated media was added per well. To test the sensitivity of yeast, compound was solubilized in 10 percent aqueous DMSO at 2.56 mg/ml. The compound was diluted serially in YNB/G from 128 to 0.06 μg/ml. The wells were filled with 150 μl of drug containing media. […]

Structure (SMILES)	IC50 (Squalene Synthetase) [nM]	MIC (Fus. oxysporum MF4014) [µg/mL]
CC=CCCCCC=CCCCCC(=O)OC1C(O)C2(CCC(C)C(O)C(C)CC=Cc3ccccc3)OC(C(=O)O)C(O)(C(=O)O)C1(C(=O)O)O2 (stereo not drawn) [Compound A]	5	> 100
CC=CCCCCC=CCCCCC(=O)OC1C(O)C2(CCC(C)C(O)C(C)CC=Cc3ccccc3)OC(C(=O)OC)C(O)(C(=O)OC)C1(C(=O)OC)O2 (stereo not drawn) [Compound B]	5000	–
